Key:
Test in all cases: post-emergence field trial under rows of vines, 150-200 L water/ha (Examples 6-9)
Assay type in all cases: in vivo
Conditions in all cases: flazasulfuron 40 g/ha
[1] = system: Amaranthus retroflexus
[2] = system: Stellaria media
[3] = system: Bromus oxyodon
[4] = system: Veronica persicae
[5] = system: Convolvulus arvensis
[6] = system: Senecio vulgaris
[7] = system: Chenopodium album
[8] = system: Sonchus oleracea
[9] = system: Digitaria sanguinalis
[10] = system: Oxalis latifolia
[11] = system: Erigeron sumatrensis
[12] = 7 d, pelargonic acid 10880 g/ha
[13] = 14 d, pelargonic acid 5440 g/ha
[14] = 14 d, pelargonic acid 10880 g/ha
[15] = 31 d, pelargonic acid 5440 g/ha
[16] = 31 d, pelargonic acid 6800 g/ha
[17] = 31 d, pelargonic acid 8160 g/ha
[18] = 31 d, pelargonic acid 10880 g/ha
[19] = 58 d, pelargonic acid 5440 g/ha
[20] = 58 d, pelargonic acid 6800 g/ha
[21] = 58 d, pelargonic acid 8160 g/ha
[22] = 58 d, pelargonic acid 10880 g/ha
[23] = 14 d, pelargonic acid 6800 g/ha
[24] = 14 d, pelargonic acid 8160 g/ha
[25] = 28 d, pelargonic acid 5440 g/ha
[26] = 28 d, pelargonic acid 6800 g/ha
[27] = 28 d, pelargonic acid 8160 g/ha
[28] = 28 d, pelargonic acid 10880 g/ha
[29] = 27 d, pelargonic acid 5440 g/ha
[30] = 27 d, pelargonic acid 6800 g/ha
[31] = 27 d, pelargonic acid 8160 g/ha
[32] = 27 d, pelargonic acid 10880 g/ha
[33] = 56 d, pelargonic acid 5440 g/ha
[34] = 56 d, pelargonic acid 10880 g/ha
[35] = 56 d, pelargonic acid 6800 g/ha
[36] = 56 d, pelargonic acid 8160 g/ha

COc1cc(OC)nc(NC(=O)NS(=O)(=O)c2ncccc2C(F)(F)F)n1 [Flazasulfuron, 1-(4,6-dimethoxypyrimidin-2-yl)-3-(3-trifluoromethyl-2-pyridylsulfonyl)urea]
herbicidal effect ([1]; 7 d, pelargonic acid 5440 g/ha): 23% | herbicidal effect [1, 12]: 23% | herbicidal effect [1, 13]: 23% | herbicidal effect [1, 14]: 23% | herbicidal effect [1, 15]: 53% | herbicidal effect [1, 16]: 53% | herbicidal effect [1, 17]: 53% | herbicidal effect [1, 18]: 53% | herbicidal effect [1, 19]: 78% | herbicidal effect [1, 20]: 78% | herbicidal effect [1, 21]: 78% | herbicidal effect [1, 22]: 78% | herbicidal effect ([2]; 7 d, pelargonic acid 8160 g/ha): 30% | herbicidal effect [2, 12]: 30% | herbicidal effect [2, 13]: 54% | herbicidal effect [2, 23]: 54% | herbicidal effect [2, 24]: 54% | herbicidal effect [2, 14]: 54% | herbicidal effect [2, 25]: 86% | herbicidal effect [2, 26]: 86% | herbicidal effect [2, 27]: 86% | herbicidal effect [2, 28]: 86% | herbicidal effect ([3]; 7 d, pelargonic acid 5440 g/ha): 28% | herbicidal effect ([3]; 7 d, pelargonic acid 6800 g/ha): 28% | herbicidal effect ([3]; 7 d, pelargonic acid 8160 g/ha): 28% | herbicidal effect [3, 12]: 28% | herbicidal effect [3, 13]: 46% | herbicidal effect [3, 23]: 46% | herbicidal effect [3, 24]: 46% | herbicidal effect [3, 14]: 46% | herbicidal effect [3, 25]: 78% | herbicidal effect [3, 26]: 78% | herbicidal effect [3, 27]: 78% | herbicidal effect [3, 28]: 78% | herbicidal effect ([4]; 7 d, pelargonic acid 5440 g/ha): 43% | herbicidal effect ([4]; 7 d, pelargonic acid 6800 g/ha): 43% | herbicidal effect ([4]; 7 d, pelargonic acid 8160 g/ha): 43% | herbicidal effect [4, 12]: 43% | herbicidal effect [4, 13]: 50% | herbicidal effect [4, 23]: 50% | herbicidal effect [4, 24]: 50% | herbicidal effect [4, 14]: 50% | herbicidal effect [4, 29]: 24% | herbicidal effect [4, 30]: 24% | herbicidal effect [4, 31]: 24% | herbicidal effect [4, 32]: 24% | herbicidal effect [4, 33]: 0% | herbicidal effect [4, 34]: 0% | herbicidal effect ([5]; 7 d, pelargonic acid 5440 g/ha): 73% | herbicidal effect ([5]; 7 d, pelargonic acid 6800 g/ha): 73% | herbicidal effect ([5]; 7 d, pelargonic acid 8160 g/ha): 73% | herbicidal effect [5, 13]: 88% | herbicidal effect [5, 23]: 88% | herbicidal effect [5, 24]: 88% | herbicidal effect [5, 14]: 88% | herbicidal effect [5, 26]: 74% | herbicidal effect [5, 27]: 74% | herbicidal effect [5, 28]: 74% | herbicidal effect ([5]; 65 d, pelargonic acid 5440 g/ha): 0% | herbicidal effect ([5]; 65 d, pelargonic acid 6800 g/ha): 0% | herbicidal effect ([5]; 65 d, pelargonic acid 8160 g/ha): 0% | herbicidal effect ([5]; 65 d, pelargonic acid 10880 g/ha): 0% | herbicidal effect ([6]; 7 d, pelargonic acid 5440 g/ha): 20% | herbicidal effect ([6]; 7 d, pelargonic acid 6800 g/ha): 20% | herbicidal effect [6, 13]: 20% | herbicidal effect [6, 23]: 20% | herbicidal effect [6, 24]: 20% | herbicidal effect [6, 15]: 50% | herbicidal effect [6, 16]: 50% | herbicidal effect [6, 17]: 50% | herbicidal effect [6, 18]: 50% | herbicidal effect [6, 19]: 97% | herbicidal effect [6, 21]: 97% | herbicidal effect [6, 22]: 97% | herbicidal effect ([7]; 7 d, pelargonic acid 5440 g/ha): 23% | herbicidal effect [7, 12]: 23% | herbicidal effect [7, 13]: 25% | herbicidal effect [7, 14]: 25% | herbicidal effect [7, 15]: 53% | herbicidal effect [7, 17]: 53% | herbicidal effect [7, 18]: 53% | herbicidal effect [7, 19]: 65% | herbicidal effect [7, 20]: 65% | herbicidal effect [7, 21]: 65% | herbicidal effect [7, 22]: 65% | herbicidal effect [8, 13]: 75% | herbicidal effect [8, 23]: 75% | herbicidal effect [8, 24]: 75% | herbicidal effect [8, 14]: 75% | herbicidal effect [8, 29]: 74% | herbicidal effect [8, 30]: 74% | herbicidal effect [8, 31]: 74% | herbicidal effect [8, 32]: 74% | herbicidal effect [8, 33]: 70% | herbicidal effect [8, 35]: 70% | herbicidal effect [8, 36]: 70% | herbicidal effect [8, 34]: 70% | herbicidal effect ([9]; 7 d, pelargonic acid 5440 g/ha): 51% | herbicidal effect ([9]; 7 d, pelargonic acid 6800 g/ha): 51% | herbicidal effect ([9]; 7 d, pelargonic acid 8160 g/ha): 51% | herbicidal effect [9, 12]: 51% | herbicidal effect [9, 13]: 80% | herbicidal effect [9, 23]: 80% | herbicidal effect [9, 24]: 80% | herbicidal effect [9, 14]: 80% | herbicidal effect [9, 29]: 73% | herbicidal effect [9, 30]: 73% | herbicidal effect [9, 31]: 73% | herbicidal effect [9, 32]: 73% | herbicidal effect [9, 33]: 64% | herbicidal effect [9, 35]: 64% | herbicidal effect [9, 36]: 64% | herbicidal effect [9, 34]: 64% | herbicidal effect ([10]; 7 d, pelargonic acid 6800 g/ha): 29% | herbicidal effect ([10]; 7 d, pelargonic acid 8160 g/ha): 29% | herbicidal effect [10, 12]: 29% | herbicidal effect [10, 13]: 49% | herbicidal effect [10, 23]: 49% | herbicidal effect [10, 24]: 49% | herbicidal effect [10, 14]: 49% | herbicidal effect [10, 26]: 44% | herbicidal effect ([11]; 5 d, pelargonic acid 5440 g/ha): 18% | herbicidal effect ([11]; 5 d, pelargonic acid 8160 g/ha): 18% | herbicidal effect ([11]; 15 d, pelargonic acid 5440 g/ha): 98% | herbicidal effect ([11]; 15 d, pelargonic acid 6800 g/ha): 98% | herbicidal effect ([11]; 15 d, pelargonic acid 8160 g/ha): 98%

Reference: patent US20240365781A1, “SYNERGISTICALLY EFFECTIVE HERBICIDE COMPOSITION COMPRISING PELARGONIC ACID AND FLAZASULFURON” (Belchim Crop Protection NV, priority 2017, published 2024)
